Results published in patent US12077503B2, “Substituted cyclic amides and their use as herbicides” (FMC CORPORATION, priority 2015, dated 2024).

Legend:
Assay type in all cases: in vivo
[1] = system: giant foxtail (Setaria faberii); assay: Test A postemergence; details: Setaria faberi, post-emergence, 240 h
In short: (§1)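 Visual injury scores from 0, no effect, to 100, complete control, were assigned versus untreated controls roughly 10 d after treatment in the greenhouse. Test chemicals, formulated with surfactant in a non-phytotoxic solvent, were applied to planted seeds as a preemergence soil spray or postemergence to one- to two-leaf plants 2 to 10 cm tall, in loam–sand soil.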

[2] = system: pigweed (Amaranthus retroflexus); assay: Test A postemergence; details: Amaranthus retroflexus, post-emergence, 240 h
In short: as §1

[3] = system: corn (Zea mays); assay: Test A postemergence; details: Zea mays, post-emergence, 240 h
In short: as §1

[4] = system: wheat (Triticum aestivum); assay: Test A postemergence; details: Triticum aestivum, post-emergence, 240 h
In short: as §1

[5] = system: blackgrass (Alopecurus myosuroides); assay: Test A postemergence; details: Alopecurus myosuroides, post-emergence, 240 h
In short: as §1

[6] = system: Kochia (Kochia scoparia); assay: Test A postemergence; details: Bassia scoparia, post-emergence, 240 h
In short: as §1

[7] = system: barnyardgrass (Echinochloa crus-galli); assay: Test A postemergence; details: Echinochloa crus-galli, post-emergence, 240 h
In short: as §1

[8] = system: Galium (catchweed bedstraw, Galium aparine); assay: Test A postemergence; details: Galium, post-emergence, 240 h
In short: as §1

[9] = system: ragweed (common ragweed, Ambrosia elatior); assay: Test A postemergence; details: Ambrosia artemisiifolia, post-emergence, 240 h
In short: as §1

[10] = system: ryegrass, Italian (Italian ryegrass, Lolium multiflorum); assay: Test A postemergence; details: Lolium multiflorum, post-emergence, 240 h
In short: as §1

[11] = system: giant foxtail (Setaria faberii); assay: Test A preemergence; details: Setaria faberi, pre-emergence, 240 h, 0 to 100 scale where 0 is no effect and 100 is complete control, read-out: Foxtail, Giant plant response rating
In short: as §1

[12] = system: pigweed (Amaranthus retroflexus); assay: Test A preemergence; details: Amaranthus retroflexus, pre-emergence, 240 h, 0 to 100 scale where 0 is no effect and 100 is complete control, read-out: Pigweed plant response rating
[13] = system: Kochia (Kochia scoparia); assay: Test A preemergence; details: Bassia scoparia, pre-emergence, 240 h, 0 to 100 scale where 0 is no effect and 100 is complete control, read-out: Kochia plant response rating
In short: as §1

[14] = system: barnyardgrass (Echinochloa crus-galli); assay: Test A preemergence; details: Echinochloa crus-galli, pre-emergence, 240 h, 0 to 100 scale where 0 is no effect and 100 is complete control, read-out: Barnyardgrass plant response rating
In short: as §1

[15] = system: ragweed (common ragweed, Ambrosia elatior); assay: Test A preemergence; details: Ambrosia artemisiifolia, pre-emergence, 240 h, 0 to 100 scale where 0 is no effect and 100 is complete control, read-out: Ragweed plant response rating
In short: as §1

[16] = system: ryegrass, Italian (Italian ryegrass, Lolium multiflorum); assay: Test A preemergence; details: Lolium multiflorum, pre-emergence, 240 h, 0 to 100 scale where 0 is no effect and 100 is complete control, read-out: Ryegrass, Italian plant response rating
In short: as §1

[17] = system: ducksalad (Heteranthera limosa); assay: Test B flooded paddy test; details: Heteranthera limosa, 250 g ai/ha, Flood; 0 to 100 scale where 0 is no effect and 100 is complete control; read-out: Ducksalad plant response rating
In short: (§2)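 Response scored visually against untreated controls, 0 = no effect and 100 = complete control, 13–15 d after treatment in the greenhouse. Compounds added to paddy water held 3 cm above soil surface. Treatment given at 2-leaf stage.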

[18] = system: rice (Oryra sativa); assay: Test B flooded paddy test; details: Oryza sativa, 250 g ai/ha, Flood; 0 to 100 scale where 0 is no effect and 100 is complete control; read-out: Rice plant response rating
In short: as §2

[19] = system: sedge, umbrella (small-flower umbrella sedge, Cyperus difformis); assay: Test B flooded paddy test; details: Cyperus difformis, 250 g ai/ha, Flood; 0 to 100 scale where 0 is no effect and 100 is complete control; read-out: Sedge, Umbrella plant response rating
In short: as §2

[20] = system: barnyardgrass (Echinochloa crus-galli); assay: Test B flooded paddy test; details: Echinochloa crus-galli, 250 g ai/ha, Flood; 0 to 100 scale where 0 is no effect and 100 is complete control; read-out: Barnyardgrass plant response rating
In short: as §2

[21] = 125 g ai/ha, preemergence, approx. 10 d

Structure (SMILES): COc1cccc([C@H]2CN(C)C(=O)[C@@H]2C(=O)Nc2cccc(F)c2F)c1F [Compound 1072]
- pest or weed control at 125 g/ha ([1]; 125 g ai/ha, postemergence, visual injury on 0 to 100 scale (0 no effect, 100 complete control), approx. 10 d, read-out: Foxtail, Giant plant response rating): 90%
- pest or weed control at 31 g/ha ([1]; Postemergence, 31 g ai/ha, visual injury after approx. 10 d, 0 to 100 scale, 0 no effect, 100 complete control, read-out: Plant response rating, Foxtail, Giant): 80%
- pest or weed control at 125 g/ha ([2]; 125 g ai/ha, postemergence, visual injury on 0 to 100 scale (0 no effect, 100 complete control), approx. 10 d, read-out: Pigweed plant response rating): 0%
- pest or weed control at 31 g/ha ([2]; Postemergence, 31 g ai/ha, visual injury after approx. 10 d, 0 to 100 scale, 0 no effect, 100 complete control, read-out: Plant response rating, Pigweed): 0%
- plant injury at 125 g/ha ([3]; 125 g ai/ha, postemergence, visual injury on 0 to 100 scale (0 no effect, 100 complete control), approx. 10 d, read-out: Corn plant response rating): 0%
- Corn plant response rating (crop injury, 0 = no effect, 100 = complete kill) at 31 g/ha ([3]; Postemergence, 31 g ai/ha, visual injury after approx. 10 d, 0 to 100 scale, 0 no effect, 100 complete control): 0%
- plant injury at 125 g/ha ([4]; 125 g ai/ha, postemergence, visual injury on 0 to 100 scale (0 no effect, 100 complete control), approx. 10 d, read-out: Wheat plant response rating): 20%
- plant injury at 31 g/ha ([4]; Postemergence, 31 g ai/ha, visual injury after approx. 10 d, 0 to 100 scale, 0 no effect, 100 complete control, read-out: Plant response rating, Wheat): 0%
- pest or weed control at 125 g/ha ([5]; 125 g ai/ha, postemergence, visual injury on 0 to 100 scale (0 no effect, 100 complete control), approx. 10 d, read-out: Blackgrass plant response rating): 20%
- pest or weed control at 31 g/ha ([5]; Postemergence, 31 g ai/ha, visual injury after approx. 10 d, 0 to 100 scale, 0 no effect, 100 complete control, read-out: Plant response rating, Blackgrass): 0%
- pest or weed control at 125 g/ha ([6]; 125 g ai/ha, postemergence, visual injury on 0 to 100 scale (0 no effect, 100 complete control), approx. 10 d, read-out: Kochia plant response rating): 0%
- pest or weed control at 31 g/ha ([6]; Postemergence, 31 g ai/ha, visual injury after approx. 10 d, 0 to 100 scale, 0 no effect, 100 complete control, read-out: Plant response rating, Kochia): 0%
- pest or weed control at 125 g/ha ([7]; 125 g ai/ha, postemergence, visual injury on 0 to 100 scale (0 no effect, 100 complete control), approx. 10 d, read-out: Barnyardgrass plant response rating): 100%
- pest or weed control at 31 g/ha ([7]; Postemergence, 31 g ai/ha, visual injury after approx. 10 d, 0 to 100 scale, 0 no effect, 100 complete control, read-out: Plant response rating, Barnyardgrass): 90%
- pest or weed control at 125 g/ha ([8]; 125 g ai/ha, postemergence, visual injury on 0 to 100 scale (0 no effect, 100 complete control), approx. 10 d, read-out: Galium plant response rating): 0%
- pest or weed control at 31 g/ha ([8]; Postemergence, 31 g ai/ha, visual injury after approx. 10 d, 0 to 100 scale, 0 no effect, 100 complete control, read-out: Plant response rating, Galium): 0%
- pest or weed control at 125 g/ha ([9]; 125 g ai/ha, postemergence, visual injury on 0 to 100 scale (0 no effect, 100 complete control), approx. 10 d, read-out: Ragweed plant response rating): 0%
- pest or weed control at 31 g/ha ([9]; Postemergence, 31 g ai/ha, visual injury after approx. 10 d, 0 to 100 scale, 0 no effect, 100 complete control, read-out: Plant response rating, Ragweed): 0%
- pest or weed control at 125 g/ha ([10]; 125 g ai/ha, postemergence, visual injury on 0 to 100 scale (0 no effect, 100 complete control), approx. 10 d, read-out: Ryegrass, Italian plant response rating): 30%
- pest or weed control at 31 g/ha ([10]; Postemergence, 31 g ai/ha, visual injury after approx. 10 d, 0 to 100 scale, 0 no effect, 100 complete control, read-out: Plant response rating, Ryegrass, Italian): 0%
- pest or weed control at 31 g/ha ([11]; 31 g ai/ha, Preemergence): 90%
- pest or weed control at 125 g/ha [11, 21]: 100%
- pest or weed control at 31 g/ha ([12]; 31 g ai/ha, Preemergence): 0%
- pest or weed control at 125 g/ha [12, 21]: 0%
- pest or weed control at 31 g/ha ([13]; 31 g ai/ha, Preemergence): 0%
- pest or weed control at 125 g/ha [13, 21]: 0%
- pest or weed control at 31 g/ha ([14]; 31 g ai/ha, Preemergence): 90%
- pest or weed control at 125 g/ha [14, 21]: 100%
- pest or weed control at 31 g/ha ([15]; 31 g ai/ha, Preemergence): 0%
- pest or weed control at 125 g/ha [15, 21]: 0%
- pest or weed control at 31 g/ha ([16]; 31 g ai/ha, Preemergence): 0%
- pest or weed control at 125 g/ha [16, 21]: 0%
- pest or weed control at 250 g/ha [17]: 80%
- pest or weed control at 250 g/ha [18]: 15%
- pest or weed control at 250 g/ha [19]: 0%
- pest or weed control at 250 g/ha [20]: 70%
